Assay results published in patent US9422285B2, “Substituted pyrazolo[1,5-A]-pyridine-3-carboxamides and use thereof” (Bayer Pharma Aktiengesellschaft, priority 2014, dated 2016).
Where a name gives a salt, the structure may show the parent alone.

Molecular target: T1, recombinant guanylate cyclase reporter cell line (Rattus norvegicus, UniProt P19686+P20595)
T1 construct: expressed in transfected cells
T1 sequence (P19686 1-690): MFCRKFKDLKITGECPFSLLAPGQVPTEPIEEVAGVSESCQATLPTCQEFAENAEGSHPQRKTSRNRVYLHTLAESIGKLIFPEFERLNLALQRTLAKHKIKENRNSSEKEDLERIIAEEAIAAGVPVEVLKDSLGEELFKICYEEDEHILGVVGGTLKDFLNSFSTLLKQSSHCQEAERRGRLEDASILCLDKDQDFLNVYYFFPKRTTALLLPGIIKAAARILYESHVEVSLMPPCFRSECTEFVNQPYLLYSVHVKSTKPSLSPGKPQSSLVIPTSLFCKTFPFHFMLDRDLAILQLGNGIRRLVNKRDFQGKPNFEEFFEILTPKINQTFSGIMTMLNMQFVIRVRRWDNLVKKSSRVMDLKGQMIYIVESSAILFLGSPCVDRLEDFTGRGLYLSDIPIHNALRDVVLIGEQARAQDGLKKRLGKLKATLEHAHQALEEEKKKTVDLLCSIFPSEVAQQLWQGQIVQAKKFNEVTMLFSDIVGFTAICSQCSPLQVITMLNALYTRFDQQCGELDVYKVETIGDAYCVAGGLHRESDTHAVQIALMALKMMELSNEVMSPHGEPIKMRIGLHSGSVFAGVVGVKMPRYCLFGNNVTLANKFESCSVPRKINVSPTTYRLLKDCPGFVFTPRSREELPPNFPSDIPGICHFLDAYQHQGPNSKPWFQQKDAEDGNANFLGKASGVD
T1 sequence (P20595 1-619): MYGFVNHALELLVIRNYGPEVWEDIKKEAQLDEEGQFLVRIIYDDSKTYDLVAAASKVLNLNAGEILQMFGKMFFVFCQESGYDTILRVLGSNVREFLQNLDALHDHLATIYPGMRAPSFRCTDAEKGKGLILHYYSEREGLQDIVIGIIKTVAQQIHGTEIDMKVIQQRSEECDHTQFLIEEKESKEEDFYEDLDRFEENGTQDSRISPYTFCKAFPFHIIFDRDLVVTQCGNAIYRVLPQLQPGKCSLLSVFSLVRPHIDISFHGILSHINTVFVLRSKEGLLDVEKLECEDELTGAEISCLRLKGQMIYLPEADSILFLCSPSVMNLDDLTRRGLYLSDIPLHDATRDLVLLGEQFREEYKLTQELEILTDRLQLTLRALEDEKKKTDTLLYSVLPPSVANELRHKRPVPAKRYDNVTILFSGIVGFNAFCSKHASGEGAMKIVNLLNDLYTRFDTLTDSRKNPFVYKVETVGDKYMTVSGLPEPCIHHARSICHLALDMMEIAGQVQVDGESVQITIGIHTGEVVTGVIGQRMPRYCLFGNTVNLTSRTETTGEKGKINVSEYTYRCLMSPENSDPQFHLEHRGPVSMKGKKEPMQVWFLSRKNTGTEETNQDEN
Assay: Effect on a recombinant guanylate cyclase reporter cell line (B-2)
Assay type: cell-based
Conditions: in some cases mean values for individual determinations
Description: B-2. Effect on a Recombinant Guanylate Cyclase Reporter Cell Line
The cellular effect of the inventive compounds is determined using a recombinant guanylate cyclase reporter cell line, as described in F. Wunder et al., Anal. Biochem. 339, 104-112 (2005).
Representative MEC values (MEC=minimum effective concentration) for the inventive compounds are shown in the table below (in some cases as mean values for individual determinations): […]

SMILES	MEC (minimum effective concentration) [µM]
CCC(C)(N)CNC(=O)c1c(C)nn2c(OCc3c(F)ccc(F)c3F)cc(C)cc12 (single isomer, unassigned) [Example 3, ent-N-(2-Amino-2-methylbutyl)-2,5-dimethyl-7-[(2,3,6-trifluorobenzyl)oxy]pyrazolo[1,5-a]pyridine-3-carboxamide]	0.3
Cc1cc(OCc2c(F)cccc2F)n2nc(C)c(C(=O)NCC3(N)CC3)c2c1 [Example 118, N-[(1-Aminocyclopropyl)methyl]-7-[(2,6-difluorobenzyl)oxy]-2,5-dimethylpyrazolo[1,5-a]pyridine-3-carboxamide]	0.3
Cc1cc(OCc2c(F)cccc2F)n2nc(C)c(C(=O)NCC(N)c3csc4ccccc34)c2c1 (racemic) [Example 112, rac-N-[2-Amino-2-(1-benzothiophen-3-yl)ethyl]-7-[(2,6-difluorobenzyl)oxy]-2,5-dimethylpyrazolo[1,5-a]pyridine-3-carboxamide]	10
Cc1cc(OCc2c(F)cccc2F)n2nc(C)c(C(=O)NC3CCC(N)C3)c2c1 (racemic) [Example 130, rac-N-(3-Aminocyclopentyl)-7-[(2,6-difluorobenzyl)oxy]-2,5-dimethylpyrazolo[1,5-a]pyridine-3-carboxamide]	3.0
CCCC(C)(N)CNC(=O)c1c(C)nn2c(OCC3CCCCC3)cc(C)cc12 (racemic) [Example 159, rac-N-(2-Amino-2-methylpentyl)-7-(cyclohexylmethoxy)-2,5-dimethylpyrazolo[1,5-a]pyridine-3-carboxamide]	3.0
Cc1cc(OCc2c(F)ccc(F)c2F)n2nc(C)c(C(=O)NC3c4ccccc4CC3O)c2c1 (centres unmarked) [Example 6]	1.0
Cc1cc(OCc2c(F)cccc2F)n2nc(C)c(C(=O)NCC(C)(N)CCCF)c2c1 (single isomer, unassigned) [Example 44, ent-N-(2-Amino-5-fluoro-2-methylpentyl)-7-[(2,6-difluorobenzyl)oxy]-2,5-dimethylpyrazolo[1,5-a]pyridine-3-carboxamide]	0.3
Cc1cc(OCc2c(F)cccc2F)n2nc(C)c(C(=O)NCC(N)c3ccc4ncccc4c3)c2c1 (racemic) [Example 103, rac-N-[2-Amino-2-(quinolin-6-yl)ethyl]-7-[(2,6-difluorobenzyl)oxy]-2,5-dimethylpyrazolo[1,5-a]pyridine-3-carboxamide]	10
CCCC[C@@H](C)NC(=O)c1c(C)nn2c(OCc3c(F)cccc3F)cc(C)cc12 [Example 94, 7-[(2,6-Difluorobenzyl)oxy]-N-[(2R)-hexan-2-yl]-2,5-dimethylpyrazolo[1,5-a]pyridine-3-carboxamide]	1.0
Cc1cc(OCc2c(F)cccc2F)n2nc(C)c(C(=O)NCC3CCc4ccccc4N3)c2c1 (racemic) [Example 82, rac-7-[(2,6-Difluorobenzyl)oxy]-2,5-dimethyl-N-(1,2,3,4-tetrahydroquinolin-2-ylmethyl)pyrazolo[1,5-a]pyridine-3-carboxamide]	1.0
Cc1cc(OCc2c(F)ccc(F)c2F)n2nc(C)c(C(=O)Nc3cnn(CC(F)(F)F)c3)c2c1 [Example 17, 2,5-Dimethyl-7-[(2,3,6-trifluorobenzyl)oxy]-N-[1-(2,2,2-trifluoroethyl)-1H-pyrazol-4-yl]pyrazolo[1,5-a]pyridine-3-carboxamide]	0.3
CC=CCC(N)CNC(=O)c1c(C)nn2c(OCc3c(F)cccc3F)cc(C)cc12 (racemic) [Example 115, rac-N-[2-Aminohex-4-en-1-yl]-7-[(2,6-difluorobenzyl)oxy]-2,5-dimethylpyrazolo[1,5-a]pyridine-3-carboxamide]	0.3
Cc1cc(OCc2c(F)cccc2F)n2nc(C)c(C(=O)NCCN3CCN(C)CC3)c2c1 [Example 93, 7-[(2,6-Difluorobenzyl)oxy]-2,5-dimethyl-N-[2-(4-methylpiperazin-1-yl)ethyl]pyrazolo[1,5-a]pyridine-3-carboxamide]	10
CCCC[C@H](CO)NC(=O)c1c(C)nn2c(OCc3c(F)cccc3F)cc(C)cc12 [Example 144, 7-[(2,6-Difluorobenzyl)oxy]-N-[(2R)-1-hydroxyhexan-2-yl]-2,5-dimethylpyrazolo[1,5-a]pyridine-3-carboxamide]	0.1
CCCC(C)(N)CNC(=O)c1c(C)nn2c(OCCC(C)C)cc(C)cc12 (racemic) [Example 160, rac-N-(2-Amino-2-methylpentyl)-2,5-dimethyl-7-(3-methylbutoxy)pyrazolo[1,5-a]pyridine-3-carboxamide]	3.0
Cc1cc(OCc2c(F)cccc2F)n2nc(C)c(C(=O)NOCCO)c2c1 [Example 64, 7-[(2,6-Difluorobenzyl)oxy]-N-(2-hydroxyethoxy)-2,5-dimethylpyrazolo[1,5-a]pyridine-3-carboxamide trifluoroacetate]	3.0
Cc1cc(OCc2c(F)ccc(F)c2F)n2nc(C)c(C(=O)NCCN(CC(F)F)C3CC3)c2c1 [Example 26, N-{2-[Cyclopropyl(2,2-difluoroethyl)amino]ethyl]-2,5-dimethyl-7-[(2,3,6-trifluorobenzyl)oxy]pyrazolo[1,5-a]pyridine-3-carboxamide]	0.3
CCOC(=O)c1cccc(C(CN)NC(=O)c2c(C)nn3c(OCc4c(F)cccc4F)cc(C)cc23)n1 (racemic) [Example 83, rac-Ethyl 6-{2-amino-1-[({7-[(2,6-difluorobenzyl)oxy]-2,5-dimethylpyrazolo[1,5-a]pyridin-3-yl}carbonyl)amino]ethyl} pyridine-2-carboxylate trifluoroacetate]	3.0
Cc1cc(OCc2c(F)cccc2F)n2nc(C)c(C(=O)N[C@@H](CO)c3ccc(C)o3)c2c1 [Example 177, 7-[(2,6-Difluorobenzyl)oxy]-N-[(1S)-2-hydroxy-1-(5-methy1-2-furyl)ethyl]-2,5-dimethylpyrazolo[1,5-a]pyridine-3-carboxamide]	1.0
CCC(C)(N)CNC(=O)c1c(C)nn2c(OCc3c(F)cccc3F)cc(C)cc12 (single isomer, unassigned) [Example 2, ent-N-(2-Amino-2-methylbutyl)-7-[(2,6-difluorobenzyl)oxy]-2,5-dimethylpyrazolo[1,5-a]pyridine-3-carboxamide formate]	0.3
Cc1cc(OCc2c(F)ccc(F)c2F)n2nc(C)c(C(=O)NC(CCC(F)(F)C(F)(F)F)C(C)(C)O)c2c1 (single isomer, unassigned; ent-2) [Example 22, ent-2,5-Dimethyl-N-(6,6,7,7,7-pentafluoro-2-hydroxy-2-methylheptan-3-yl)-7-[(2,3,6-trifluorobenzyl)oxy]pyrazolo[1,5-a]pyridine-3-carboxamide]	0.1
CCOC(=O)NCCNC(=O)c1c(C)nn2c(OCc3c(F)cccc3F)cc(C)cc12 [Example 106, Ethyl {2-[({7-[(2,6-difluorobenzyl)oxy]-2,5-dimethylpyrazolo[1,5-a]pyridin-3-yl}carbonyl)amino]ethyl}carbamate]	1.0
CCCC(C)(N)CNC(=O)c1c(C)nn2c(OCc3c(F)ccc(OC)c3F)cc(C)cc12 (racemic) [Example 161, rac-N-(2-Amino-2-methylpentyl)-7-[(2,6-difluoro-3-methoxybenzyl)oxy]-2,5-dimethylpyrazolo[1,5-a]pyridine-3-carboxamide]	3.0
